Assay results: patent publication US20240270762A1, “PENICILLIN-BINDING PROTEIN INHIBITORS” (priority 2021, published 2024)
In brackets after ≈: the same amount, converted by molar mass.

Assays:
P. aeruginosa ATCC 35151 = test: microbe, parasite or virus in culture; format: cell-based; conditions: Pseudomonas aeruginosa, ATCC35151, read-out: MIC P. aeruginosa ATCC 35151
N. gonorrhoeae WHO L = test: Liquid broth MIC in Fastidious broth; conditions: Neisseria gonorrhoeae, read-out: Minimum Inhibitory Concentration (MIC), N. gonorrhoeae WHO L
E. coli ATCC 25922 = test: microbe, parasite or virus in culture; format: cell-based; conditions: Escherichia coli, ATCC25922, read-out: MIC E. coli 25922
[1] = system: P. aeruginosa (ΔmexAB-oprM); test: Broth microdilution MIC in CAMHB; format: cell-based; conditions: Pseudomonas aeruginosa; read-out: MIC P. aeruginosa ΔmexAB-oprM
K. pneumoniae SI-117 = test: microbe, parasite or virus in culture; format: cell-based; conditions: Klebsiella pneumoniae, SI117, read-out: MIC K. pneumoniae SI-117
N. gonorrhoeae CDC-0197 = test: Liquid broth MIC in Fastidious broth; conditions: Neisseria gonorrhoeae, CDC0197, read-out: Minimum Inhibitory Concentration (MIC), N. gonorrhoeae CDC-0197
N. gonorrhoeae WHO X = test: Liquid broth MIC in Fastidious broth; conditions: Neisseria gonorrhoeae, read-out: Minimum Inhibitory Concentration (MIC), N. gonorrhoeae WHO X
N. gonorrhoeae WHO K = test: Liquid broth MIC in Fastidious broth; conditions: Neisseria gonorrhoeae, read-out: Minimum Inhibitory Concentration (MIC), N. gonorrhoeae WHO K
N. gonorrhoeae WHO Q = test: Liquid broth MIC in Fastidious broth; conditions: Neisseria gonorrhoeae, read-out: Minimum Inhibitory Concentration (MIC), N. gonorrhoeae WHO Q
[2] = molecular target: T1, PBP2 from Neisseria gonorrhoeae (FA19) (Neisseria gonorrhoeae, UniProt P08149); test: Bocillin-FL fluorescence polarization competition binding, N. gonorrhoeae PBP2; conditions: fluorescence polarization competition binding assay using Bocillin-FL, read-out: N. gonorrhoeae PBP2 Potency
T1 construct: made in house
T1 sequence (P08149 whole entry): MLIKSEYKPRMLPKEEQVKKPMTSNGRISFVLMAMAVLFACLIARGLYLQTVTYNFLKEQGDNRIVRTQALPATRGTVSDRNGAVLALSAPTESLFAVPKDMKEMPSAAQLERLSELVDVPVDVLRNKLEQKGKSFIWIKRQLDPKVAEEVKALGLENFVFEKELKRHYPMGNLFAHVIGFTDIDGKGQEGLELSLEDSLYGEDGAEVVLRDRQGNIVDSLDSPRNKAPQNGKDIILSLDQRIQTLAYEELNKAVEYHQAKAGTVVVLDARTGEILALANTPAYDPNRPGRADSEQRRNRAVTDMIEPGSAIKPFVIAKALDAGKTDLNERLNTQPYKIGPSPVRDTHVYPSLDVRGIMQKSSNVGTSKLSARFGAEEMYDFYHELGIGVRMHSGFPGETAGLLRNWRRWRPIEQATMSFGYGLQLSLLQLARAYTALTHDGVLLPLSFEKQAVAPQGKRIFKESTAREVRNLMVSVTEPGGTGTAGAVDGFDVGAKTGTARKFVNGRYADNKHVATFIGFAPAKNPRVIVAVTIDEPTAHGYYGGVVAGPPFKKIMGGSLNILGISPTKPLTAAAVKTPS
How it was run: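 Fluorescence polarization competition with 0.1 μM Bocillin-FL (fluorescent penicillin V) against 0.25 μM N. gonorrhoeae FA19 PBP2 in 50 mM Hepes pH 8.0, 300 mM NaCl, 10% glycerol. Boronic acid inhibitors were preincubated with PBP, then Bocillin-FL was added and FP read (490/520 nm) up to 60 min. EC50 is the concentration halving PBP-bound Bocillin-FL.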

N. gonorrhoeae WHO G = test: Liquid broth MIC in Fastidious broth; conditions: Neisseria gonorrhoeae, read-out: Minimum Inhibitory Concentration (MIC), N. gonorrhoeae WHO G
E. coli 901C = test: microbe, parasite or virus in culture; format: cell-based; conditions: Escherichia coli, read-out: MIC E. coli 901C
A. baumannii ATCC 19606 = test: microbe, parasite or virus in culture; format: cell-based; conditions: Acinetobacter baumannii, ATCC19606, read-out: MIC, A. baumannii ATCC 19606

| SMILES | MIC (P. aeruginosa ATCC 35151) [µg/mL] | MIC (N. gonorrhoeae WHO L) [µg/mL] | MIC (E. coli ATCC 25922) [µg/mL] | MIC [1] [µg/mL] | MIC (K. pneumoniae SI-117) [µg/mL] | MIC (N. gonorrhoeae CDC-0197) [µg/mL] | MIC (N. gonorrhoeae WHO X) [µg/mL] | MIC (N. gonorrhoeae WHO K) [µg/mL] | MIC (N. gonorrhoeae WHO Q) [µg/mL] | EC50 [2] [µM] | MIC (N. gonorrhoeae WHO G) [µg/mL] | MIC (E. coli 901C) [µg/mL] | MIC (A. baumannii ATCC 19606) [µg/mL] |
| --- | --- | --- | --- | --- | --- | --- | --- | --- | --- | --- | --- | --- | --- |
| O=C(O)c1c(F)ccc2c1OB(O)[C@@H](NC(=O)C(NC(=O)N1CCN(Cc3ccc(O)c(O)c3Cl)C(=O)C1=O)c1ccc(P(=O)(O)O)cc1)C2 (stereo partly drawn) [Example 8, (3R)-3-(2-(4-(2-chloro-3,4-dihydroxybenzyl)-2,3-dioxopiperazine-1-carboxamido)-2-(4-phosphonophenyl)acetamido)-7-fluoro-2-hydroxy-3,4-dihydro-2H-benzo[e][1,2]oxaborinine-8-carboxylic acid] | < 1 | 4 to 8 (≈ 5.44 to 10.9 µM) | 2 to 4 (≈ 2.72 to 5.44 µM) | < 1 | 8 to 16 (≈ 10.9 to 21.8 µM) | 1 to 2 (≈ 1.36 to 2.72 µM) | 4 to 8 (≈ 5.44 to 10.9 µM) | 1 to 2 (≈ 1.36 to 2.72 µM) | < 1 | < 10 | < 1 | < 1 | < 1 |
| O=C(NC(C(=O)N[C@H]1Cc2cccc(C(=O)O)c2OB1O)c1ccc(P(=O)(O)O)cc1)c1ccccn1 (stereo partly drawn) [Example 32, (3R)-2-hydroxy-3-(2-(4-phosphonophenyl)-2-(picolinamido)acetamido)-3,4-dihydro-2H-benzo[e][1,2]oxaborinine-8-carboxylic acid] | 2 to 4 (≈ 3.81 to 7.62 µM) | 16 to 32 (≈ 30.5 to 60.9 µM) | > 128 | 32 to 64 (≈ 60.9 to 122 µM) | > 128 | 1 to 2 (≈ 1.9 to 3.81 µM) | 16 to 32 (≈ 30.5 to 60.9 µM) | 4 to 8 (≈ 7.62 to 15.2 µM) | 1 to 2 (≈ 1.9 to 3.81 µM) | < 10 | < 1 | 2 to 4 (≈ 3.81 to 7.62 µM) | > 128 |
| CS(=O)(=O)N1CCN(C(=O)N[C@@H](C(=O)N[C@H]2Cc3ccc(F)c(C(=O)O)c3OB2O)c2ccc(P(=O)(O)O)c(F)c2F)C1=O [Example 16, (R)-3-((R)-2-(2,3-difluoro-4-phosphonophenyl)-2-(3-(methylsulfonyl)-2-oxoimidazolidine-1-carboxamido)acetamido)-7-fluoro-2-hydroxy-3,4-dihydro-2H-benzo[e][1,2]oxaborinine-8-carboxylic acid] | 2 to 4 (≈ 3.01 to 6.02 µM) | < 1 | > 128 | > 128 | > 128 | < 1 | < 1 | < 1 | < 1 | < 10 | < 1 | < 1 | > 128 |
| CCC(=O)NC(C(=O)N[C@H]1Cc2cccc(C(=O)O)c2OB1O)c1ccc(P(=O)(O)O)cc1 (stereo partly drawn) [Example 27, (3R)-2-hydroxy-3-(2-(4-phosphonophenyl)-2-propionamidoacetamido)-3,4-dihydro-2H-benzo[e][1,2]oxaborinine-8-carboxylic acid] | 8 to 16 (≈ 16.8 to 33.6 µM) | 16 to 32 (≈ 33.6 to 67.2 µM) | > 128 | > 128 | > 128 | 16 to 32 (≈ 33.6 to 67.2 µM) | 16 to 32 (≈ 33.6 to 67.2 µM) | 16 to 32 (≈ 33.6 to 67.2 µM) | 16 to 32 (≈ 33.6 to 67.2 µM) | 10 to 50 | 4 to 8 (≈ 8.4 to 16.8 µM) | 8 to 16 (≈ 16.8 to 33.6 µM) | > 128 |
| CCN1CCN(C(=O)NC(C(=O)N[C@H]2Cc3cccc(C(=O)O)c3OB2O)c2ccc(P(=O)(O)O)c(O)c2)C(=O)C1=O (stereo partly drawn) [Example 21, (3R)-3-(2-(4-ethyl-2,3-dioxopiperazine-1-carboxamido)-2-(3-hydroxy-4-phosphonophenyl)acetamido)-2-hydroxy-3,4-dihydro-2H-benzo[e][1,2]oxaborinine-8-carboxylic acid] | < 1 | < 1 | 8 to 16 (≈ 13.2 to 26.5 µM) | 32 to 64 (≈ 53 to 106 µM) | > 128 | < 1 | < 1 | < 1 | < 1 | < 10 | < 1 | < 1 | 2 to 4 (≈ 3.31 to 6.62 µM) |
| O=C(O)c1cccc2c1OB(O)[C@@H](NC(=O)C(NC(=O)C1CCCCC1)c1ccc(P(=O)(O)O)cc1)C2 (stereo partly drawn) [Example 31, (3R)-3-(2-(cyclohexanecarboxamido)-2-(4-phosphonophenyl)acetamido)-2-hydroxy-3,4-dihydro-2H-benzo[e][1,2]oxaborinine-8-carboxylic acid] | 2 to 4 (≈ 3.77 to 7.54 µM) | 16 to 32 (≈ 30.2 to 60.3 µM) | > 128 | > 128 | > 128 | 16 to 32 (≈ 30.2 to 60.3 µM) | 16 to 32 (≈ 30.2 to 60.3 µM) | 16 to 32 (≈ 30.2 to 60.3 µM) | 16 to 32 (≈ 30.2 to 60.3 µM) | < 10 | 16 to 32 (≈ 30.2 to 60.3 µM) | 32 to 64 (≈ 60.3 to 121 µM) | > 128 |
| CS(=O)(=O)N1CCN(C(=O)NC(C(=O)N[C@H]2Cc3cccc(C(=O)O)c3OB2O)c2ccc(P(=O)(O)O)c(O)c2)C1=O (stereo partly drawn) [Example 17, (3R)-2-hydroxy-3-(2-(3-hydroxy-4-phosphonophenyl)-2-(3-(methylsulfonyl)-2-oxoimidazolidine-1-carboxamido)acetamido)-3,4-dihydro-2H-benzo[e][1,2]oxaborinine-8-carboxylic acid] | < 1 | < 1 | 32 to 64 (≈ 51.1 to 102 µM) | 8 to 16 (≈ 12.8 to 25.5 µM) | > 128 | < 1 | < 1 | < 1 | < 1 | < 10 | < 1 | < 1 | 2 to 4 (≈ 3.19 to 6.39 µM) |
| CS(=O)(=O)N1CCC[C@@H]1C(=O)N[C@@H](C(=O)N[C@H]1Cc2cccc(C(=O)O)c2OB1O)c1ccc(P(=O)(O)O)cc1 [Example 35, (R)-2-hydroxy-3-((R)-2-((R)-1-(methylsulfonyl)pyrrolidine-2-carboxamido)-2-(4-phosphonophenyl)acetamido)-3,4-dihydro-2H-benzo[e][1,2]oxaborinine-8-carboxylic acid] | 2 to 4 (≈ 3.36 to 6.72 µM) | 16 to 32 (≈ 26.9 to 53.8 µM) | > 128 | > 128 | > 128 | 4 to 8 (≈ 6.72 to 13.4 µM) | 16 to 32 (≈ 26.9 to 53.8 µM) | 4 to 8 (≈ 6.72 to 13.4 µM) | 4 to 8 (≈ 6.72 to 13.4 µM) | < 10 | 1 to 2 (≈ 1.68 to 3.36 µM) | 8 to 16 (≈ 13.4 to 26.9 µM) | > 128 |
| O=C(O)c1cccc2c1OB(O)[C@@H](NC(=O)[C@@H](NC(=O)N1CCNC1=O)c1ccc(P(=O)(O)O)cc1)C2 [Example 39, (R)-2-hydroxy-3-((S)-2-(2-oxoimidazolidine-1-carboxamido)-2-(4-phosphonophenyl)acetamido)-3,4-dihydro-2H-benzo[e][1,2]oxaborinine-8-carboxylic acid] | 2 to 4 (≈ 3.76 to 7.52 µM) | 16 to 32 (≈ 30.1 to 60.1 µM) | > 128 | > 128 | > 128 | 1 to 2 (≈ 1.88 to 3.76 µM) | 16 to 32 (≈ 30.1 to 60.1 µM) | 16 to 32 (≈ 30.1 to 60.1 µM) | 4 to 8 (≈ 7.52 to 15 µM) | 10 to 50 | < 1 | 2 to 4 (≈ 3.76 to 7.52 µM) | > 128 |
